Measurements from patent US20250304620A1, “ANTIMICROBIAL PEPTIDE AND APPLICATION THEREOF” (priority 2023, published 2025).
In brackets after ≈: the same amount, converted by molar mass. Marks after values point to notes of the source that are not given here. Non-standard residues stand in square brackets, D forms with d. Residues, ends and D or L forms follow the SMILES beside them. dPhe(3,4-Cl2) = N[C@H](Cc1ccc(Cl)c(Cl)c1)C(=O)O; dPhe(3,4-F2) = N[C@H](Cc1ccc(F)c(F)c1)C(=O)O; dPhe(4-F) = N[C@H](Cc1ccc(F)cc1)C(=O)O; d2Nal = N[C@H](Cc1ccc2ccccc2c1)C(=O)O

How the values were obtained:
[1] = tested on: Escherichia coli ATCC 25922; test: Oral formulations on mice with systemic bacterial infection; assay type: in vivo, ICR mice; settings: three times a day for 7 days; for Number of mice that died on each day after infection: day 4 / Number of mice that died on each day after infection: day 5 / Number of mice that died on each day after infection: day 6 / Number of mice that died on each day after infection: day 7 / Number of mice that died on each day after infection: day 8 / Average survival times (Days): n = 10; for Average survival times (Days): observed for 14 d
Procedure, shortened: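 Survival time and deaths were logged over a 14 d observation after oral gavage dosing (by body weight, thrice daily, 7 days, starting right after infection). Model: mixed-sex ICR mice, n=10 per group, intraperitoneal injection of E. coli ATCC 25922 suspension (0.2 mL, 1×10^7 CFU/mL).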

[2] = tested on: Staphylococcus aureus (NRS 384); test: microbe, parasite or virus in culture; assay type: cell-based; settings: NRS 384
Procedure, shortened: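 MICs were read against S. aureus strain NRS 384 using twofold serial dilution by CLSI microdilution rules. Levofloxacin and Cbf-K16 were the reference controls, and the test was repeated 5 times in parallel.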

[3] = tested on: Shigella flexneri ATCC 12022; test: MIC against clinically common bacterial strain; assay type: cell-based
Procedure, shortened: (§1)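 Read-out is MIC, from a CLSI-conformant twofold microdilution series, done in quintuplicate in parallel.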

[4] = Serum stability assay (residual level by RP-HPLC); settings: human
[5] = tested on: Staphylococcus aureus (NRS 384); settings: NRS 384, 3 h
Protocol: Trypsin (250 U/mg, pH=8.0) and AMPs (LV-1 to LV-30) were mixed in a ratio of 1:10 (w/w) and added to a reaction buffer (0.2 M sodium phosphate, 1 mM CaCl2), pH 7.5), and then incubated at 37° C. for 3 h.

Enterococcus ATCC 29212 = assay type: cell-based
Procedure, shortened: as §1

Candida utilis ATCC 9950 = assay type: cell-based
Procedure, shortened: as §1

[6] = tested on: Bacillus subtilis ATCC 6633; assay type: cell-based
Procedure, shortened: as §1

[7] = tested on: Escherichia coli ATCC 25922; assay type: cell-based
Procedure, shortened: as §1

[8] = tested on: Staphylococcus aureus ATCC 25923; assay type: cell-based
Procedure, shortened: as §1

[9] = tested on: Candida glabrata ATCC 15126; assay type: cell-based
Procedure, shortened: as §1

[10] = tested on: Klebsiella pneumoniae ATCC 700603; assay type: cell-based
Procedure, shortened: as §1

[11] = tested on: Corynebacterium ATCC 7715; assay type: cell-based
Procedure, shortened: as §1

[12] = tested on: Salmonella typhimurium ATCC 14028; assay type: cell-based
Procedure, shortened: as §1

[13] = tested on: Pseudomonas aeruginosa ATCC 27853; assay type: cell-based
Procedure, shortened: as §1

[14] = tested on: Serratia marcescens ATCC 29021; assay type: cell-based
Procedure, shortened: as §1

Candida krusei ATCC 6258 = assay type: cell-based
Procedure, shortened: as §1

[15] = tested on: Candida tropicalis ATCC 750; assay type: cell-based
Procedure, shortened: as §1

[16] = tested on: Candida albicans ATCC MYA-2876; assay type: cell-based
Procedure, shortened: as §1

[17] = tested on: Trichophyton ATCC MYA-4438; assay type: cell-based
Procedure, shortened: as §1

Row | SMILES | Number of mice that died on each day after infection: day 4 ([1]; 1 mg/kg gavage) [Mouse] | Number of mice that died on each day after infection: day 5 ([1]; 1 mg/kg gavage) [Mouse] | Number of mice that died on each day after infection: day 6 ([1]; 1 mg/kg gavage) [Mouse] | Number of mice that died on each day after infection: day 7 ([1]; 1 mg/kg gavage) [Mouse] | Number of mice that died on each day after infection: day 8 ([1]; 1 mg/kg gavage) [Mouse] | Average survival times (Days) ([1]; 1 mg/kg gavage) | MIC against Staphylococcus aureus (NRS 384) [2] [µg/mL] | MIC Shigella flexneri ATCC 12022 [3] [µg/mL] | remaining at 12 h, 0.91 mg/mL [4] [%] | Trypsin MIC [5] [µg/mL] | MIC Enterococcus ATCC 29212 (Enterococcus ATCC 29212) [µg/mL] | MIC Candida utilis ATCC 9950 (Candida utilis ATCC 9950) [µg/mL] | MIC Bacillus subtilis ATCC 6633 [6] [µg/mL] | MIC Escherichia coli ATCC 25922 [7] [µg/mL] | MIC Staphylococcus aureus ATCC 25923 [8] [µg/mL] | MIC Candida glabrata ATCC 15126 [9] [µg/mL] | MIC Klebsiella pneumoniae ATCC 700603 [10] [µg/mL] | MIC Corynebacterium ATCC 7715 [11] [µg/mL] | MIC Salmonella typhimurium ATCC 14028 [12] [µg/mL] | MIC Pseudomonas aeruginosa ATCC 27853 [13] [µg/mL] | other results
1 | CC(=O)N[C@H](CCCNC(=N)N)C(=O)N[C@H](CCCCN)C(=O)N[C@H](C)C(=O)N[C@H](C)C(=O)N[C@H](Cc1ccc2ccccc2c1)C(=O)N[C@H](CCCNC(=N)N)C(=O)N[C@H](C)C(=O)N[C@H](CCCCN)C(=O)N[C@H](Cc1ccc2ccccc2c1)C(=O)N[C@H](CCCNC(=N)N)C(=O)N[C@H](CCCCN)C(N)=O [LV-15] (Ac-[dR][dK][dA][dA][d2Nal][dR][dA][dK][d2Nal][dR][dK]-NH2) | 1 | 3 | 0 | 1 | 0 | 9.6** Days | 1 (≈ 0.658 µM) | 2 (≈ 1.32 µM) | 97.3 | 1 | 4 (≈ 2.63 µM) | 8 (≈ 5.26 µM) | 4 (≈ 2.63 µM) | 2 (≈ 1.32 µM) | 2 (≈ 1.32 µM) | 4 (≈ 2.63 µM) | 4 (≈ 2.63 µM) | 8 (≈ 5.26 µM) | 2 (≈ 1.32 µM) | 4 (≈ 2.63 µM) | MIC Serratia marcescens ATCC 29021 [14]: 8 µg/mL (≈ 5.26 µM); MIC Candida krusei ATCC 6258 (Candida krusei ATCC 6258): 4 µg/mL (≈ 2.63 µM); MIC Candida tropicalis ATCC 750 [15]: 8 µg/mL (≈ 5.26 µM); MIC Candida albicans ATCC MYA-2876 [16]: 8 µg/mL (≈ 5.26 µM); MIC Trichophyton ATCC MYA-4438 [17]: 8 µg/mL (≈ 5.26 µM)
2 | CC(=O)N[C@H](CCCNC(=N)N)C(=O)N[C@H](CCCCN)C(=O)N[C@H](CC(C)C)C(=O)N[C@H](CC(C)C)C(=O)N[C@H](Cc1ccc(Cl)c(Cl)c1)C(=O)N[C@H](CCCCN)C(=O)N[C@H](CC(C)C)C(=O)N[C@H](CCCCN)C(=O)N[C@H](Cc1ccc(Cl)c(Cl)c1)C(=O)N[C@H](CCCCN)C(=O)N[C@H](CCCNC(=N)N)C(N)=O [LV-8] (Ac-[dR][dK][dL][dL][dPhe(3,4-Cl2)][dK][dL][dK][dPhe(3,4-Cl2)][dK][dR]-NH2) | 2 | 1 | 0 | 2 | 0 | 9.7** Days | 1 (≈ 0.604 µM) | 4 (≈ 2.42 µM) | 97.6 | 1 | 2 (≈ 1.21 µM) | 8 (≈ 4.83 µM) | 2 (≈ 1.21 µM) | 2 (≈ 1.21 µM) | 1 (≈ 0.604 µM) | 16 (≈ 9.66 µM) | 4 (≈ 2.42 µM) | 2 (≈ 1.21 µM) | 2 (≈ 1.21 µM) | 2 (≈ 1.21 µM) | MIC Serratia marcescens ATCC 29021 [14]: 2 µg/mL (≈ 1.21 µM); MIC Candida krusei ATCC 6258 (Candida krusei ATCC 6258): 16 µg/mL (≈ 9.66 µM); MIC Candida tropicalis ATCC 750 [15]: 16 µg/mL (≈ 9.66 µM); MIC Candida albicans ATCC MYA-2876 [16]: 16 µg/mL (≈ 9.66 µM); MIC Trichophyton ATCC MYA-4438 [17]: 8 µg/mL (≈ 4.83 µM)
3 | CC(=O)N[C@H](CCCNC(=N)N)C(=O)N[C@H](CCCCN)C(=O)N[C@H](CC(C)C)C(=O)N[C@H](CC(C)C)C(=O)N[C@H](Cc1ccc(F)cc1)C(=O)N[C@H](CCCCN)C(=O)N[C@H](CC(C)C)C(=O)N[C@H](CCCCN)C(=O)N[C@H](Cc1ccc(F)cc1)C(=O)N[C@H](CCCCN)C(=O)N[C@H](CCCNC(=N)N)C(N)=O [LV-5] (Ac-[dR][dK][dL][dL][dPhe(4-F)][dK][dL][dK][dPhe(4-F)][dK][dR]-NH2) | 1 | 2 | 2 | 1 | 0 | 8.9** Days | 1 (≈ 0.644 µM) | 2 (≈ 1.29 µM) | 98.2 | 1 | 2 (≈ 1.29 µM) | 16 (≈ 10.3 µM) | 4 (≈ 2.57 µM) | 4 (≈ 2.57 µM) | 1 (≈ 0.644 µM) | 16 (≈ 10.3 µM) | 2 (≈ 1.29 µM) | 4 (≈ 2.57 µM) | 4 (≈ 2.57 µM) | 2 (≈ 1.29 µM) | MIC Serratia marcescens ATCC 29021 [14]: 2 µg/mL (≈ 1.29 µM); MIC Candida krusei ATCC 6258 (Candida krusei ATCC 6258): 4 µg/mL (≈ 2.57 µM); MIC Candida tropicalis ATCC 750 [15]: 8 µg/mL (≈ 5.15 µM); MIC Candida albicans ATCC MYA-2876 [16]: 8 µg/mL (≈ 5.15 µM); MIC Trichophyton ATCC MYA-4438 [17]: 4 µg/mL (≈ 2.57 µM)
4 | CC(=O)N[C@H](CCCCN)C(=O)N[C@H](CCCCN)C(=O)N[C@H](CC(C)C)C(=O)N[C@H](CC(C)C)C(=O)N[C@H](Cc1ccc(F)c(F)c1)C(=O)N[C@H](CCCNC(=N)N)C(=O)N[C@H](CC(C)C)C(=O)N[C@H](CCCCN)C(=O)N[C@H](Cc1ccc(F)c(F)c1)C(=O)N[C@H](CCCNC(=N)N)C(=O)N[C@H](CCCCN)C(N)=O [LV-25] (Ac-[dK][dK][dL][dL][dPhe(3,4-F2)][dR][dL][dK][dPhe(3,4-F2)][dR][dK]-NH2) | 1 | 1 | 0 | 1 | 1 | 10.8*** Days | 1 (≈ 0.629 µM) | 2 (≈ 1.26 µM) | 97.8 | 1 | 2 (≈ 1.26 µM) | 8 (≈ 5.03 µM) | 8 (≈ 5.03 µM) | 1 (≈ 0.629 µM) | 2 (≈ 1.26 µM) | 8 (≈ 5.03 µM) | 8 (≈ 5.03 µM) | 2 (≈ 1.26 µM) | 1 (≈ 0.629 µM) | 1 (≈ 0.629 µM) | Number of mice that died on each day after infection: day 4 ([1]; 0.2 mg/kg gavage): 1 Mouse; Number of mice that died on each day after infection: day 5 ([1]; 0.2 mg/kg gavage): 1 Mouse; Number of mice that died on each day after infection: day 6 ([1]; 0.2 mg/kg gavage): 2 Mouse; Number of mice that died on each day after infection: day 7 ([1]; 0.2 mg/kg gavage): 2 Mouse; Number of mice that died on each day after infection: day 8 ([1]; 0.2 mg/kg gavage): 1 Mouse; Average survival times (Days) ([1]; 0.2 mg/kg gavage): 8.5** Days; Number of mice that died on each day after infection: day 4 ([1]; 5 mg/kg gavage): 0 Mouse; Number of mice that died on each day after infection: day 5 ([1]; 5 mg/kg gavage): 3 Mouse; Number of mice that died on each day after infection: day 6 ([1]; 5 mg/kg gavage): 0 Mouse; Number of mice that died on each day after infection: day 7 ([1]; 5 mg/kg gavage): 2 Mouse; Number of mice that died on each day after infection: day 8 ([1]; 5 mg/kg gavage): 0 Mouse; Average survival times (Days) ([1]; 5 mg/kg gavage): 9.9** Days; survival time of mice infected with Escherichia coli ([1]; gavage, observed 14 d): superior to those of the Levofloxacin group; MIC Serratia marcescens ATCC 29021 [14]: 4 µg/mL (≈ 2.52 µM); MIC Candida krusei ATCC 6258 (Candida krusei ATCC 6258): 8 µg/mL (≈ 5.03 µM); MIC Candida tropicalis ATCC 750 [15]: 8 µg/mL (≈ 5.03 µM); MIC Candida albicans ATCC MYA-2876 [16]: 8 µg/mL (≈ 5.03 µM); MIC Trichophyton ATCC MYA-4438 [17]: 8 µg/mL (≈ 5.03 µM)
